Assay results taken from the supplement of paper PMC10307832.

Tests used:
[1] = compound: COC1=C(C=C(C=C1)C2=CC3=NC=CN3C(=N2)NC4=C(C=CC=N4)C(=O)N)OC [BAY61-3606] + CC(=O)Nc1cccc(-n2c(=O)n(C3CC3)c(=O)c3c(Nc4ccc(I)cc4F)n(C)c(=O)c(C)c32)c1 [Trametinib] (partner 0.02 µM); assay: relative viability (nuclei count vs DMSO), 5 days (fraction); higher = more cells survive
Summary of the method: (§1)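 One day after seeding in 1536-well plates, lung cancer cell lines were dosed by pin tool. Dosing was either single-drug or a fixed anchor-drug dose plus five library-drug doses (not always all listed) in √10 steps. After 5 days, nuclei were stained in one fix-and-stain step and counted on 4× images, and relative viability is the nuclei count of treated wells over that of vehicle wells, given as the median of duplicate plates.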

[2] = compound: COC1=C(C=C(C=C1)C2=CC3=NC=CN3C(=N2)NC4=C(C=CC=N4)C(=O)N)OC [BAY61-3606] + NC(=O)Nc1cc(-c2cccc(F)c2)sc1C(=O)N[C@H]1CCCNC1 [AZD7762] (partner 0.2 µM); assay: as above
Summary of the method: as §1

| Cell Line | relative viability ([1]; first compound 0.02 µM) | relative viability ([1]; first compound 0.06325 µM) | relative viability ([1]; first compound 0.2 µM) | relative viability ([1]; first compound 0.6325 µM) | relative viability ([1]; first compound 2 µM) | relative viability ([2]; first compound 0.02 µM) | relative viability ([2]; first compound 0.06325 µM) | relative viability ([2]; first compound 0.2 µM) | relative viability ([2]; first compound 0.6325 µM) | relative viability ([2]; first compound 2 µM) |
| --- | --- | --- | --- | --- | --- | --- | --- | --- | --- | --- |
| 201T | 0.728 | 0.712 | 0.771 | 0.753 | 0.735 | 0.592 | 0.759 | 0.752 | 0.661 | 0.688 |
| A-427 | 0.902 | 0.755 | 0.782 | 0.798 | 0.817 | 0.831 | 0.689 | 0.659 | 0.752 | 0.682 |
| ABC-1 |  |  |  |  |  | 0.644 | 0.793 | 0.716 | 0.701 | 0.873 |
| BEN | 1.21 | 1.01 | 1.11 | 1.21 | 1.2 | 0.78 | 0.637 | 0.672 | 0.694 | 0.808 |
| CAL-12T | 0.359 | 0.372 | 0.346 | 0.347 | 0.229 | 0.693 | 0.577 | 0.677 | 0.634 | 0.71 |
| COR-L23 | 0.725 | 0.668 | 0.635 | 0.751 | 0.558 |  |  |  |  |  |
| COR-L 105 | 0.474 | 0.414 | 0.463 | 0.429 | 0.436 |  |  |  |  |  |
| ChaGo-K-1 | 0.947 | 0.893 | 0.921 | 0.872 | 0.939 | 0.943 | 0.904 | 0.9 | 0.847 | 0.841 |
| EKVX | 0.497 | 0.308 | 0.303 | 0.361 | 0.365 | 0.742 | 0.673 | 0.644 | 0.753 | 0.665 |
| EMC-BAC-2 | 0.938 | 0.883 | 0.944 | 1.17 | 1.05 | 1.12 | 0.888 | 1.1 | 1.32 | 1.12 |
| EPLC-272H | 0.309 | 0.275 | 0.281 | 0.294 | 0.263 | 0.223 | 0.193 | 0.313 | 0.186 | 0.173 |
| H3255 | 0.688 | 0.538 | 0.598 | 0.715 | 0.587 | 0.941 | 0.775 | 1.03 | 0.942 | 0.902 |
| HARA | 0.6 | 0.52 | 0.781 | 0.724 | 0.54 | 0.286 | 0.291 | 0.452 | 0.303 | 0.3 |
| HCC-15 | 0.425 | 0.375 | 0.385 | 0.382 | 0.423 | 1.31 | 0.919 | 1.29 | 1.25 | 1.16 |
| HCC-44 | 1.04 | 1.09 | 1 | 1.07 | 1.2 | 1.01 | 1.1 | 0.962 | 1.01 | 1.1 |
| HCC-78 | 0.763 | 0.745 | 0.738 | 0.836 | 0.859 | 0.645 | 0.51 | 0.652 | 0.487 | 0.674 |
| HCC-366 | 0.345 | 0.319 | 0.327 | 0.268 | 0.21 | 0.286 | 0.222 | 0.282 | 0.265 | 0.283 |
| HCC-827 | 0.511 | 0.585 | 0.539 | 0.583 | 0.608 | 0.219 | 0.176 | 0.211 | 0.215 | 0.207 |
| HOP-62 |  | 0.416 | 0.414 | 0.456 | 0.336 |  | 0.643 | 0.517 | 0.748 | 0.531 |
| LC-2-ad | 0.911 | 0.961 | 0.979 | 0.942 | 0.902 | 0.876 | 0.887 | 0.778 | 0.857 | 0.849 |

| Cell Line | relative viability ([1]; first compound 0.02 µM) | relative viability ([1]; first compound 0.06325 µM) | relative viability ([1]; first compound 0.2 µM) | relative viability ([1]; first compound 0.6325 µM) | relative viability ([1]; first compound 2 µM) | relative viability ([2]; first compound 0.02 µM) | relative viability ([2]; first compound 0.06325 µM) | relative viability ([2]; first compound 0.2 µM) | relative viability ([2]; first compound 0.6325 µM) | relative viability ([2]; first compound 2 µM) |
| --- | --- | --- | --- | --- | --- | --- | --- | --- | --- | --- |
| LCLC-97TM1 | 0.207 | 0.195 | 0.203 | 0.187 | 0.205 | 0.204 | 0.326 | 0.228 | 0.393 | 0.345 |
| LCLC-103H | 0.708 | 0.715 | 0.666 | 0.654 | 0.65 | 0.762 | 0.704 | 0.836 | 0.758 | 0.769 |
| LK-2 | 0.727 | 0.806 | 0.897 | 0.915 | 0.683 | 0.369 | 0.309 | 0.472 | 0.534 | 0.361 |
| LOU-NH91 | 0.842 | 0.766 | 0.826 | 0.794 | 0.706 | 0.792 | 0.686 | 0.748 | 0.784 | 0.656 |
| LU99A | 0.485 | 0.57 | 0.534 | 0.503 | 0.47 | 0.41 | 0.306 | 0.358 | 0.399 | 0.334 |
| LXF-289 | 0.694 | 0.673 | 0.722 | 0.752 | 0.766 | 1.13 | 1.1 | 1.04 | 1.24 | 1.24 |
| NCI-H23 | 0.437 | 0.347 | 0.348 | 0.393 | 0.372 | 0.227 | 0.192 | 0.251 | 0.265 | 0.224 |
| NCI-H322M | 0.533 | 0.522 | 0.542 | 0.499 | 0.486 | 0.528 | 0.525 | 0.579 | 0.522 | 0.571 |
| NCI-H358 | 0.137 | 0.158 | 0.143 | 0.146 | 0.0995 | 0.489 | 0.502 | 0.469 | 0.468 | 0.261 |
| NCI-H441 | 0.491 | 0.417 | 0.363 | 0.483 | 0.371 | 1.21 | 1.29 | 1.04 | 1.3 | 0.974 |
| NCI-H460 | 0.153 | 0.173 | 0.134 | 0.117 | 0.104 | 0.63 | 0.646 | 0.739 | 0.631 | 0.766 |
| NCI-H520 | 0.685 | 0.704 | 0.751 | 0.85 | 0.644 |  |  |  |  |  |
| NCI-H522 | 0.607 | 0.723 | 0.818 | 0.764 | 0.688 | 0.796 | 0.698 | 0.692 | 0.762 | 0.822 |
| NCI-H596 | 0.879 | 0.793 | 0.701 | 1.01 | 0.696 | 1.04 | 0.929 | 1.13 | 1.7 | 0.846 |
| NCI-H647 | 0.479 | 0.496 | 0.413 | 0.551 | 0.319 | 0.433 | 0.393 | 0.383 | 0.444 | 0.324 |
| NCI-H650 | 1.09 | 1.05 | 0.922 | 0.93 | 0.838 | 1.18 | 0.887 | 0.889 | 0.998 | 0.999 |
| NCI-H661 | 0.638 | 0.585 | 0.551 | 0.633 | 0.541 |  |  |  |  |  |
| NCI-H727 | 0.392 | 0.382 | 0.423 | 0.42 | 0.387 | 0.747 | 0.509 | 0.577 | 0.75 | 0.734 |
| NCI-H838 | 0.54 | 0.496 | 0.547 | 0.575 | 0.362 | 1.06 | 0.847 | 0.954 | 0.908 | 0.895 |
| NCI-H1355 | 0.424 | 0.447 | 0.409 | 0.46 | 0.345 | 0.833 | 0.531 | 0.679 | 0.749 | 0.529 |

| Cell Line | relative viability ([1]; first compound 0.02 µM) | relative viability ([1]; first compound 0.06325 µM) | relative viability ([1]; first compound 0.2 µM) | relative viability ([1]; first compound 0.6325 µM) | relative viability ([1]; first compound 2 µM) | relative viability ([2]; first compound 0.02 µM) | relative viability ([2]; first compound 0.06325 µM) | relative viability ([2]; first compound 0.2 µM) | relative viability ([2]; first compound 0.6325 µM) | relative viability ([2]; first compound 2 µM) |
| --- | --- | --- | --- | --- | --- | --- | --- | --- | --- | --- |
| NCI-H1395 | 1.06 | 1.07 | 0.964 | 1.02 | 0.95 | 0.393 | 0.411 | 0.424 | 0.42 | 0.393 |
| NCI-H1437 | 0.537 | 0.456 | 0.523 | 0.602 | 0.462 | 1.14 | 1.08 | 1.17 | 1.21 | 1.12 |
| NCI-H1648 | 0.47 | 0.466 | 0.546 |  | 0.512 | 0.723 | 0.696 | 0.777 |  | 0.643 |
| NCI-H1650 | 0.661 | 0.514 | 0.595 | 0.569 | 0.29 |  |  |  |  |  |
| NCI-H1651 | 0.929 | 0.809 | 0.833 | 0.844 | 0.762 | 0.517 | 0.454 | 0.463 | 0.52 | 0.498 |
| NCI-H1666 | 0.828 | 0.973 | 0.822 | 0.792 | 0.768 | 0.917 | 0.895 | 0.852 | 0.834 | 0.82 |
| NCI-H1703 |  |  |  |  |  | 0.119 |  |  | 0.108 | 0.137 |
| NCI-H1734 | 0.708 | 0.667 | 0.636 | 0.671 | 0.568 | 0.554 | 0.508 | 0.557 | 0.502 | 0.374 |
| NCI-H1755 | 0.768 | 0.853 | 0.792 | 0.769 | 0.762 | 0.439 | 0.483 | 0.462 | 0.422 | 0.59 |
| NCI-H1792 | 0.574 | 0.361 | 0.353 | 0.412 | 0.396 | 0.783 | 0.538 | 0.802 | 0.62 | 0.455 |
| NCI-H1793 | 0.445 | 0.414 | 0.449 | 0.437 | 0.478 | 0.483 | 0.277 | 0.448 | 0.636 | 0.504 |
| NCI-H1915 | 0.35 | 0.29 | 0.325 | 0.315 | 0.246 | 0.658 | 0.708 | 0.641 | 0.659 | 0.66 |
| NCI-H2009 | 0.318 | 0.229 | 0.378 | 0.303 | 0.206 |  |  |  |  |  |
| NCI-H2023 | 0.571 | 0.64 | 0.518 | 0.587 | 0.413 |  |  |  |  |  |
| NCI-H2228 | 0.523 | 0.439 | 0.476 | 0.531 | 0.365 |  |  |  |  |  |
| SK-LU-1 | 0.562 | 0.512 | 0.482 | 0.532 | 0.406 |  |  |  |  |  |
| SK-MES-1 | 0.619 | 0.541 | 0.518 | 0.579 | 0.503 |  |  |  |  |  |
| SW 1573 | 0.566 | 0.668 | 0.533 | 0.578 | 0.341 |  |  |  |  |  |
